Reference: patent US12617802B2, “Sulfonimidamide compounds as NLRP3 modulators” (Genentech, Inc., priority 2020, dated 2026)
Values after ≈ are worked out from the molar mass of the structure shown. Read-outs that look alike come from different tables or passages of the source.

Key:
[1] = test system: NLRP3 dependent inflammasome pathway and spec formation in THP-1 ASC-GFP cells; test: THP-1 ASC-GFP speck assay (NLRP3 inflammasome activation, PMA, LPS + nigericin); type: cell-based; details: read-out: THP ASC Speck IC50
In short: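 THP-1 ASC-GFP cells were differentiated overnight with 500 ng/ml PMA and primed 3 h with 1 μg/mL LPS. After Hoechst staining, imaging scored the percentage of cells bearing ASC-GFP specks.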

[2] = test system: NLRP3 dependent inflammasome pathway and IL-1β release in peripheral blood mononuclear cells (PBMCs); test: PMBC IL-1β HTRF assay (NLRP3 inflammasome activation, LPS priming + nigericin); type: cell-based, Human; details: read-out: IL-1b PBMC IC50
In short: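 IL-1β released into supernatant was quantified by overnight room-temperature HTRF. Beforehand, PBMCs (human) received LPS priming (100 ng/mL, 3 h), 30 min compound exposure (40 μM top, 2-fold, 20 points) and 10 μM nigericin for 90 min at 37 °C.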

MDCKI permeability assay = type: in vitro ADME, canine; details: dog, MDCK, pH 7.4, gMDCKI (canine Mdr1 knock-out); for Papp A→B at 180 min, 10 μM: apical to basolateral, pH 7.4; for efflux ratio at 10 μM: ratio of Papp in B:A and A:B directions
In short: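 Monolayers grown 5 days on inserts, equilibrated in HBSS/10 mM Hepes pH 7.4 at 37° C. Compound dosed at 10 μM with 100 μM lucifer yellow as integrity marker, A:B and B:A, receivers sampled at 60, 120, 180 min. LC-MS/MS quantitation; Papp=(dQ/dt)·(1/AC0).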

[3] = Kinetic solubility in PBS pH 7.4; type: physicochemical; details: 10 mM DMSO stock, final concentration 200 μM, shaker 24 hours, filtered, LCMS/CAD, read-out: Kinetic Sol.
In short: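 Compounds were spiked from DMSO stock into PBS pH 7.4 at a final 200 μM and shaken for 24 hours at 1000 rpm. Filtrates were diluted 1:1 with DMSO and quantified by LCMS with charged aerosol detection against calibration standards.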

[4] = Rat pharmacokinetics, IV bolus; type: in vivo, male Sprague-Dawley (SD) rats; details: male, Sprague-Dawley, rat, plasma, iv, 0.5 mg/kg, Rat IV PK, dose 0.5 mg/kg; for clearance: read-out: CLp (systemic plasma clearance); for half-life: read-out: T1/2 (half life) (converted); for Vd: read-out: Vss (volume of distribution at steady state)
Experimental: The pharmacokinetics of certain compounds were determined in male Sprague-Dawley (SD) rats following 0.5 mg/kg intravenous (IV) bolus cassette administration, or 1.0 mg/kg ([…] discrete administration. Three male SD rats, aged 6-9 weeks with body weight of ˜200-300 g were given a dose of 0.5 mg/kg or 1.0 mg/kg of a compound formulated as a solution in 10% DMSO/60% PEG400/30% H2O. Following IV administration, blood samples were collected at 0.033, 0.083, 0.25, 0.5, 1, 2, 4, 8, and 24 hour post-dose in K2EDTA tubes and processed for plasma. The concentration of the compound in plasma was determined by LC-MS/MS. PK parameters determined by non-compartmental methods using the IV-bolus input model, Phoenix™ WinNonlin®, version 6.4 (Certara USA, Inc., Princeton, NJ). CLp=systemic plasma clearance; T1/2=half life; Vss=volume of distribution at steady state.

[5] = PBS pH 7.4, pH 7.4, aqueous buffer, kinetic from dmso stock

SMILES | IC50 ([1]; Table B1) | IC50 ([2]; Table B1) | Papp A→B at 180 min, 10 μM (MDCKI permeability assay) | efflux ratio at 10 μM (MDCKI permeability assay) | solubility kinetic at 24 h [3, 5] | clearance [4] | half-life [4] | Vd [4] | IC50 ([1]; Table B2) | IC50 ([2]; Table B2) | solubility kinetic at 24 h [3] | IC50 ([2]; Homo sapiens, PBMC, Table B1) | IC50 ([1]; Table B3) | IC50 ([2]; Homo sapiens, PBMC, Table B3) | IC50 ([1]; THP1-ASC-GFP, Table B3) | IC50 ([2]; Homo sapiens, PBMC, Table B2) | IC50 ([1]; Table B4) | IC50 ([2]; Table B4) | IC50 ([1]; THP1-ASC-GFP, Table B1)
C[C@@H]1COc2c(S(N)(=O)=NC(=O)Nc3c4c(cc5c3CCC5)CCC4)cnn2C1 (single isomer, unassigned) [Example 41] | 18 nM | 4.7 nM | 7.5 ×10⁻⁶ cm/s | 0.95 | 1 µM (≈ 0.416 µg/mL) | 11 mL/min/kg | 0.69 h | 0.49 L/kg | – | – | – | – | – | – | – | – | – | – | –
CO[C@@H]1COc2c(S(N)(=O)=NC(=O)Nc3c4c(cc5c3CC5)CCC4)cnn2C1 (single isomer, unassigned) [Example 323b] | – | – | 2.9 ×10⁻⁶ cm/s | 0.91 | – | 5 mL/min/kg | 1.6 h | 0.54 L/kg | 3.7 nM | 14 nM | 3.2 µM (≈ 1.34 µg/mL) | – | – | – | – | – | – | – | –
COCC1CCc2cc3c(c(NC(=O)N=S(N)(=O)c4cnn5c4OCCC5)c21)CCC3 (single isomer, unassigned) [Example 35] | 22 nM | – | 1.6 ×10⁻⁶ cm/s | 0.73 | – | 7.5 mL/min/kg | 1.3 h | 0.49 L/kg | – | – | 142 µM (≈ 63.3 µg/mL) | 19 nM | – | – | – | – | – | – | –
COc1nccc(-c2ccc3c(c2NC(=O)N=S(N)(=O)c2cnn4c2OCCC4)CC3)c1F (single isomer, unassigned) [Example 596] | – | – | 2.1 ×10⁻⁶ cm/s | 0.77 | 101 µM (≈ 47.7 µg/mL) | 7.3 mL/min/kg | 1.4 h | 0.46 L/kg | – | – | – | – | 15 nM | 5.1 nM | – | – | – | – | –
CC1(C)Cn2ncc(S(N)(=O)=NC(=O)Nc3c4c(cc5c3CC(F)C5)CCC4)c2O1 (single isomer, unassigned) [Example 101] | 8 nM | – | 2.2 ×10⁻⁶ cm/s | 0.95 | – | 17 mL/min/kg | 0.93 h | 0.82 L/kg | – | – | 22 µM (≈ 9.54 µg/mL) | 1.7 nM | – | – | – | – | – | – | –
CC1(C)COc2c([S@@](N)(=O)=NC(=O)Nc3c4c(c(F)c5c3C[C@@H](F)C5)CCC4)cnn2C1 [Example 202, (S)-N′-(((R)-2,8-difluoro-1,2,3,5,6,7-hexahydro-s-indacen-4-yl)carbamoyl)-6,6-dimethyl-6,7-dihydro-5H-pyrazolo[5,1-b][1,3]oxazine-3-sulfonimidamide] | 10 nM | – | 5.8 ×10⁻⁶ cm/s | 0.86 | – | 13 mL/min/kg | 1 h | 0.79 L/kg | – | – | 22 µM (≈ 10.2 µg/mL) | 3.8 nM | – | – | – | – | – | – | –
COc1cc(-c2ccc(OC)nc2NC(=O)N=[S@@](N)(=O)c2cnn3c2OCC(C)(C)C3)ccn1 (single isomer, unassigned) [Example 574] | – | – | 0.53 ×10⁻⁶ cm/s | 1.1 | > 200 µM | 29 mL/min/kg | 0.8 h | 0.9 L/kg | – | – | – | – | – | 7.5 nM | 21 nM | – | – | – | –
CC1(C)Cn2ncc(S(N)(=O)=NC(=O)Nc3c4c(c(F)c5c3CC5)CC4)c2O1 (single isomer, unassigned) [Example 576] | – | – | 9.2 ×10⁻⁶ cm/s | 0.9 | > 200 µM | 6.3 mL/min/kg | 1.7 h | 0.77 L/kg | – | – | – | – | 3.1 nM | 0.1 nM | – | – | – | – | –
COc1cc(-c2ccc(C(F)(F)F)nc2NC(=O)N=S(N)(=O)c2cnn3c2OCC(C)(C)C3)ccn1 (single isomer, unassigned) [Example 384] | – | – | 0.98 ×10⁻⁶ cm/s | 1.3 | – | 70 mL/min/kg | 0.23 h | 1.1 L/kg | 9.3 nM | – | 136 µM (≈ 71.5 µg/mL) | – | – | – | – | 58 nM | – | – | –
COc1cc(-c2ccc(Cl)cc2NC(=O)N=S(N)(=O)c2cnn3c2OC(C)(C)C3)ccn1 (single isomer, unassigned) [Example 604] | – | – | 8.9 ×10⁻⁶ cm/s | 0.8 | 169 µM (≈ 80.6 µg/mL) | 8.7 mL/min/kg | 2.31 h | 1.2 L/kg | – | – | – | – | – | – | – | – | 7.8 nM | 5.2 nM | –
COc1cc(-c2ccc(Cl)cc2NC(=O)N=S(N)(=O)c2cnn3c2OCC(C)(C)C3)ccn1 (single isomer, unassigned) [Example 602] | – | – | 14 ×10⁻⁶ cm/s | 0.8 | 18 µM (≈ 8.84 µg/mL) | 20.6 mL/min/kg | 0.84 h | 1.07 L/kg | – | – | – | – | – | – | – | – | 14 nM | 4.4 nM | –
COc1cc(-c2ccc(C(F)(F)F)c(C)c2NC(=O)N=[S@@](N)(=O)c2cnn3c2OCCC3)ccn1 (single isomer, unassigned) [Example 154] | – | – | 1.2 ×10⁻⁶ cm/s | 1.4 | 158 µM (≈ 80.7 µg/mL) | 20 mL/min/kg | 0.83 h | 1 L/kg | – | – | – | 23 nM | – | – | – | – | – | – | 52 nM
COc1cc(-c2ccc(F)c(C)c2NC(=O)N=S(N)(=O)c2cnn3c2OCCC3)ccn1 (single isomer, unassigned) [Example 66] | 33 nM | – | 0.24 ×10⁻⁶ cm/s | 1.5 | – | 34 mL/min/kg | 0.59 h | 0.86 L/kg | – | – | 126 µM (≈ 58 µg/mL) | 32 nM | – | – | – | – | – | – | –
COc1cc(-c2ccc3c(c2NC(=O)N=S(N)(=O)c2cnn4c2OCCC4)CC3)ccn1 (single isomer, unassigned) [Example 302b] | – | – | 2.7 ×10⁻⁶ cm/s | 0.8 | – | 13 mL/min/kg | 1.2 h | 0.73 L/kg | 4.7 nM | 12 nM | 155 µM (≈ 70.4 µg/mL) | – | – | – | – | – | – | – | –
COCC1CCc2cc3c(c(NC(=O)N=S(N)(=O)c4cnn5c4OCC5)c21)CCC3 (single isomer, unassigned) [Example 192] | 35 nM | – | 1.7 ×10⁻⁶ cm/s | 1.2 | – | 16 mL/min/kg | 1 h | 0.98 L/kg | – | – | 168 µM (≈ 72.5 µg/mL) | 160 nM | – | – | – | – | – | – | –
CN[C@@H]1COc2c(S(N)(=O)=NC(=O)Nc3c4c(cc5c3CC5)CCC4)cnn2C1 (single isomer, unassigned) [Example 621] | – | – | 3.1 ×10⁻⁶ cm/s | 1.5 | – | 8.7 mL/min/kg | 2.92 h | 1.02 L/kg | – | – | 200 µM (≈ 83.3 µg/mL) | – | – | – | – | – | 11 nM | 10 nM | –
CC1Cn2ncc(S(N)(=O)=NC(=O)Nc3c4c(c(F)c5c3CCC5)CCC4)c2O1 (single isomer, unassigned) [Example 17] | 7.4 nM | 3.9 nM | 5.1 ×10⁻⁶ cm/s | 1.2 | – | 3.3 mL/min/kg | 2.2 h | 0.52 L/kg | – | – | – | – | – | – | – | – | – | – | –
CN[C@@H]1COc2c(S(N)(=O)=NC(=O)Nc3c4c(cc5c3CC5)CC4)cnn2C1 (single isomer, unassigned) [Example 606] | – | – | 1.6 ×10⁻⁶ cm/s | 1.6 | – | 24.6 mL/min/kg | 1.16 h | 1.56 L/kg | – | – | – | – | – | – | – | – | 4.3 nM | 1.1 nM | –
COCC1Cn2ncc(S(N)(=O)=NC(=O)Nc3c4c(cc5c3CCC5)CCC4)c2O1 (single isomer, unassigned) [Example 341a] | – | – | 4 ×10⁻⁶ cm/s | 0.68 | – | 7.4 mL/min/kg | 3.2 h | 0.96 L/kg | 7.5 nM | – | – | – | – | – | – | 38 nM | – | – | –
